How the values were obtained:
[1] = biological target: T1, Piezo1 channel (Homo sapiens, UniProt Q92508); experiment: Automated whole-cell patch clamp (SyncroPatch 384) of Piezo1-mediated currents in RBCs; assay type: cell-based; conditions: for responding cells out of total valid cells / responding cells out of total valid cells (any concentration) / concentration at which the response plateaus: +80 mV; for responding cells out of total valid cells (any concentration): current > baseline + 3σ at any concentration, N = 3; for EC50: human RBCs, responders only, current at +80 mV normalised to baseline, cumulative concentrations, Hill fit, room temperature; for concentration at which the response plateaus: normalised concentration-response curves
T1 construct: endogenous in cells; host or cells: human red blood cells (RBCs) from donor blood
T1 sequence (Q92508 whole entry): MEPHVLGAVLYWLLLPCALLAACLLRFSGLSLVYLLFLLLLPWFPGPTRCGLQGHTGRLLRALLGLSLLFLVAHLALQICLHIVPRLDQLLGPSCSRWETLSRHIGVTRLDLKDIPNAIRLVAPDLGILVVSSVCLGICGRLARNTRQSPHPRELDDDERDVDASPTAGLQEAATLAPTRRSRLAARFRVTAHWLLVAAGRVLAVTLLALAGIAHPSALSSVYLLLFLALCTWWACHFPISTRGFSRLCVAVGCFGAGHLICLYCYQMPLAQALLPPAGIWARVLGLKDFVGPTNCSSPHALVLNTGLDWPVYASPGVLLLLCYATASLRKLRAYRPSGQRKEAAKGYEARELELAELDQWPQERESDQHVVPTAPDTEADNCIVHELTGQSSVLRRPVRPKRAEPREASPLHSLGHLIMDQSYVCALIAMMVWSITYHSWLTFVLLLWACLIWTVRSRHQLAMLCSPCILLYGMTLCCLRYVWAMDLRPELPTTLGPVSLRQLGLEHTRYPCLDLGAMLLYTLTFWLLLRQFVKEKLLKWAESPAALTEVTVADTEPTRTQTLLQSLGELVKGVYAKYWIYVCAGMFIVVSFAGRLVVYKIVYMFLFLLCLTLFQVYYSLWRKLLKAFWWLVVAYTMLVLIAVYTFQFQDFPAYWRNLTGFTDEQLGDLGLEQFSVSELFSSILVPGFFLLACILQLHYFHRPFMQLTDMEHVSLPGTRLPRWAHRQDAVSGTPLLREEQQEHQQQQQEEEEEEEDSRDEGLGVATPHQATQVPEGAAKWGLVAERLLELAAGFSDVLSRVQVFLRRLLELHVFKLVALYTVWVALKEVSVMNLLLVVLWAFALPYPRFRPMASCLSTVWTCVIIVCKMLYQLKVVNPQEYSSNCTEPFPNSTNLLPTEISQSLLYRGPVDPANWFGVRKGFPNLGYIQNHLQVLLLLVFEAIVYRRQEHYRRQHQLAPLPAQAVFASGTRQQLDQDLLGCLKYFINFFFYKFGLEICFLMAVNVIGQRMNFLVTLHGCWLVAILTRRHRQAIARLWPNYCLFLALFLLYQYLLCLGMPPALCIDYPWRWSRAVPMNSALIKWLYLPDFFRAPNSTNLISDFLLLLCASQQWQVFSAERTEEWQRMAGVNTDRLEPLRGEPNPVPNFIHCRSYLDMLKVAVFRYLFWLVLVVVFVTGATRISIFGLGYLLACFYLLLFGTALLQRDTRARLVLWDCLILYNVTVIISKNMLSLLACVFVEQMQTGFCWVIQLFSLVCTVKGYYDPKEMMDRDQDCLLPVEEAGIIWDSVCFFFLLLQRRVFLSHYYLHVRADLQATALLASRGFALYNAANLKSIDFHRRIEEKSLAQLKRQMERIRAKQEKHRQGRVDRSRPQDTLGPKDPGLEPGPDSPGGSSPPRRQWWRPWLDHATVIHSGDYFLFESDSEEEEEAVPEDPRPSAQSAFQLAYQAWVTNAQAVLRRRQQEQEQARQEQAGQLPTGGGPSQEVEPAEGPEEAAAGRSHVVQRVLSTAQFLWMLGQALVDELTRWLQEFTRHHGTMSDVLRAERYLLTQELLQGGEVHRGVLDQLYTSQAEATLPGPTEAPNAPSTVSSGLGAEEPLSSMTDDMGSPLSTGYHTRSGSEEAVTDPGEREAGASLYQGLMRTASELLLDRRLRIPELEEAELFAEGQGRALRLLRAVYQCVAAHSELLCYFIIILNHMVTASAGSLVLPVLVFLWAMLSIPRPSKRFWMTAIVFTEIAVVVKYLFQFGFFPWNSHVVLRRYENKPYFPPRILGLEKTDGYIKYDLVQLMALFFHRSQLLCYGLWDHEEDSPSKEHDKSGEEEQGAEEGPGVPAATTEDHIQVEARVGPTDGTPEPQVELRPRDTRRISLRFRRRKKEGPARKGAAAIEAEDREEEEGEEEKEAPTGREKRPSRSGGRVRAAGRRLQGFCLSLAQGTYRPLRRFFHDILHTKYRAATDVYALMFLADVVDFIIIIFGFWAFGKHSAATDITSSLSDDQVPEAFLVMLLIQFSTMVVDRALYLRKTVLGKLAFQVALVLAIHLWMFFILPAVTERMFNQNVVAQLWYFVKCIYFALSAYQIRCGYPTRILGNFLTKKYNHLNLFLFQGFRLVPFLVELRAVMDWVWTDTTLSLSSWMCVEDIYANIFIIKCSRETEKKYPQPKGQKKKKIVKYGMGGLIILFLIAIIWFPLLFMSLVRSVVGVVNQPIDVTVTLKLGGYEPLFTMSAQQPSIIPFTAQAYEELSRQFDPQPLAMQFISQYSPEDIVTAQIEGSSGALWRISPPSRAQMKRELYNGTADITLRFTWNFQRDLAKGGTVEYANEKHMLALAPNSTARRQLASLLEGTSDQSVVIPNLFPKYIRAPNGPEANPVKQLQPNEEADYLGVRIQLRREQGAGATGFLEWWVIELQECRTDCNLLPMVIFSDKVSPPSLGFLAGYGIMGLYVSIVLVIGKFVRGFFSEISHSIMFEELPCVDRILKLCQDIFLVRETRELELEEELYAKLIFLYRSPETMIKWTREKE
Experimental: Whole-cell patch clamp recordings were performed using the SyncroPatch 384 (Nanion Technologies, Munich, Germany) as previously described. Experiments were conducted at room temperature using NPC-384 single-hole microchips with resistances ranging from 6 to 10 MΩ. Recording solutions contained (in mM) 110 KF, 10 KCl, 10 NaCl, 10 EGTA, and 10 HEPES, pH 7.2 (KOH) (internal); and 140 NaCl, 4 KCl, 2 CaCl2, 1 MgCl2, 5 D-glucose monohydrate, and 10 HEPES, pH 7.4 (NaOH) (external). Data acquisition was conducted using PatchControl384 v3.2.2 (Nanion Technologies, Munich, Germany), sampled at 10 kHz.
Piezo1-mediated currents were elicited using a voltage ramp protocol ranging from −100 mV to +80 mV over 450 ms, applied every 10 s, with a holding potential set at −30 mV. After establishing a stable baseline current in the external solution, cells were exposed to increasing concentrations of either Yoda1 or Yoda2 (Tocris Bioscience, Bristol, UK) in a cumulative manner: 41 nM, 144 nM, 442 nM, 1.33 μM, 4 μM, and 8 μM. To block channel activity, 30 μM GdCl3 (Sigma-Aldrich, Merck KGaA, Taufkirchen, Germany, a non-selective ion channel inhibitor, was subsequently applied.
RBCs were classified as responders if the mean current amplitude in the presence of the compound exceeded the mean current at baseline conditions by more than three times the standard deviation of the baseline (3σ). For EC50 determination, current amplitudes at each concentration were normalised to the baseline current, and dose–response curves were fitted using the Hill equation.

[2] = system: free Ca^2+ in healthy red blood cells (RBCs); experiment: Intracellular Ca2+ by Fluo-4 flow cytometry in RBCs; assay type: cell-based, human; conditions: for EC50: maximum average Fluo-4 intensity of all RBCs during recording, Hill fit, flow cytometry, read-out: EC50 (Ca^2+ Measurements)
Experimental: Experiments for the intracellular Ca^2+ detection of RBCs were performed in Tyrode solution containing (in mM) 130 NaCl, 5 KCl, 5 glucose, 10 HEPES, 1 MgCl2, and 1.5 CaCl2. The pH was adjusted to 7.40 with NaOH. All salts were of analytical grade. The cells were loaded with Fluo-4 AM (Molecular Probes, Eugene, OR, USA) at a concentration of 5 μM for 1 hour at 37 °C. Then, the cells were washed three times with Tyrode solution.
Flow cytometry measurements were performed on LSRFortessa (Becton Dickinson, Franklin Lakes, NJ, USA). Washed RBCs from 50 μL of blood were loaded with Fluo-4 as previously described and washed again. For flow cytometry analysis, 10 μL of cell suspension was added to 700 μL of designed buffer and transferred to 5 mL round-bottom polystyrene test tubes (Corning Inc., Corning, NY, USA). For each sample, data recording started 1 minute after the cells were in the designed buffer for 10 minutes. The results were assessed using FlowJo (Becton Dickinson, Franklin Lakes, NJ, USA).

[3] = system: membrane potential of RBCs (Gárdos channel activity); experiment: Membrane potential measurement (MBE method), hyperpolarisation by Gárdos channel activity; assay type: cell-based, human; conditions: magnitude of membrane hyperpolarisation ΔVm, Hill fit
Experimental: The membrane potential of RBCs was measured using a method originally described by Macey et al., subsequently refined by Poul Bennekou, e.g., [27], and later optimised by the group of Stéphane Egée, e.g., [28]. As such, the method is referred to as the MBE method after the three scientists who most contributed to it. For each experiment, a 2 mL microcentrifuge tube was prepared with 1 mL of Ringer solution containing (in mM) 153 NaCl, 2 KCl, and 4 CaCl2. All reagents were of analytical grade and dissolved in Milli-Q water. Protonophore carbonyl cyanide m-chlorophenyl hydrazone (CCCP) was added at a final concentration of 26 µM to increase the hydrogen permeability of membranes. The tube was placed in a 36 °C water bath, and a magnetic stir bar was added to ensure continuous mixing. A calibrated pH electrode (InLab Expert Pro pH electrode, Mettler-Toledo GmbH, Greifensee, Switzerland) was immersed in the solution to monitor pH changes in real time, with data acquisition and recording performed via software on a connected computer. […] The system was monitored for an additional 5 minutes to observe the effects of the compound on the RBCs. […]
The membrane potential (Vm) was calculated from the recorded pH data using the following equation:Vm [mV] = −61.5 × (pHval − pHlys), where pHval is the pH value measured at a specific time point, and pHlys is the final pH value obtained after cell lysis.

[4] = system: free Ca^2+ in healthy red blood cells (RBCs); parameters: method as in PMID 29259557, PMID 33208899; conditions: cited from earlier work
[5] = system: membrane potential of RBCs (Gárdos channel activity); parameters: method as in PMID 37492641; conditions: RBCs pretreated with the inhibitor; cited from earlier work

| block of Piezo1 channel activity ([1]; 30 μM, applied after cumulative Yoda1 or Yoda2) | responding cells out of total valid cells ([1]; 41 nM) | responding cells out of total valid cells ([1]; 144 nM) | responding cells out of total valid cells ([1]; 442 nM) | responding cells out of total valid cells ([1]; 1330 nM) | responding cells out of total valid cells ([1]; 4000 nM) | responding cells out of total valid cells ([1]; 8000 nM) | responding cells out of total valid cells (any concentration) [1] | EC50 [1] [nM] | concentration at which the response plateaus [1] | EC50 [3] [nM] | Compound | Fluo-4 (Ca^2+) response of RBCs ([2]; 40 nM) | EC50 [2] [nM] | Fluo-4 (Ca^2+) response of RBCs ([2]; 80 nM) | inhibition of increased Ca^2+ induced by Yoda1 or mechanical stress [4] | inhibition of hyperpolarisation [5] |
| --- | --- | --- | --- | --- | --- | --- | --- | --- | --- | --- | --- | --- | --- | --- | --- | --- |
| block Piezo1 channel activity completely | – | – | – | – | – | – | – | – | – | – | [Cl][Gd]([Cl])[Cl] [GdCl3] | – | – | – | – | – |
| – | 2/172 | 9/172 | 16/172 | 26/172 | 30/172 | 35/172 | 35/172 | 1390 | did not plateau | 305 | Clc1cccc(Cl)c1CSc1nnc(-c2cnccn2)s1 [Yoda1] | no obvious response | 1180 | – | – | – |
| – | 3/171 | 12/171 | 24/171 | 30/171 | 30/171 | 31/171 | 35/171 | 305 | around 4 μM | 465 | O=C(O)c1ccc(-c2nnc(SCc3c(Cl)cccc3Cl)s2)cc1 [Yoda2] | – | 986 | no obvious response | – | – |
| – | – | – | – | – | – | – | – | – | – | – | GsMTx4 | – | – | – | significantly inhibited | largely inhibited |

Reference: article PMC12384225, “Piezo1 Channel Activators Yoda1 and Yoda2 in the Context of Red Blood Cells” (Biomolecules, 2025)
